Experimental data taken from ChEMBL document CHEMBL1134175, “Nipecotic and iso-nipecotic amides as potent and selective somatostatin subtype-2 receptor agonists” (Bioorg Med Chem Lett, 2001).

Key:
[1] = target: Somatostatin receptor type 3 (Homo sapiens, UniProt P32745); test: Binding affinity to hsst3 was determined
[2] = target: Somatostatin receptor type 5 (Homo sapiens, UniProt P35346); test: Binding affinity to hsst5 was determined
[3] = target: T1, Somatostatin receptor type 2 (Homo sapiens, UniProt P30874); test: Binding affinity to Somatostatin receptor type 2 was determined
[4] = Ratio of binding affinity of h5 to that of binding affinity of h2
[5] = target: T1, Somatostatin receptor type 2; test: Binding affinity to human somatostatin 2 receptor

T1 sequence (P30874 whole entry): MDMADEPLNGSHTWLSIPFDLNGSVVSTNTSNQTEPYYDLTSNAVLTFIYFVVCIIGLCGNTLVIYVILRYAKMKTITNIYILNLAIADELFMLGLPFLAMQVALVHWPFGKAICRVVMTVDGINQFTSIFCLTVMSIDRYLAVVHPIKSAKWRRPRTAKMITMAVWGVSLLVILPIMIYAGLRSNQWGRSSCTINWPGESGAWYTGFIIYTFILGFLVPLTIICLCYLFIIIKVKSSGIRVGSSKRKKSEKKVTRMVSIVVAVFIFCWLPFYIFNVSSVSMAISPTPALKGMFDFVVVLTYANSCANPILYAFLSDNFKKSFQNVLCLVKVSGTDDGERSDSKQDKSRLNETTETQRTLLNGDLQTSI
Sequence of Somatostatin receptor type 5 (P35346 whole entry): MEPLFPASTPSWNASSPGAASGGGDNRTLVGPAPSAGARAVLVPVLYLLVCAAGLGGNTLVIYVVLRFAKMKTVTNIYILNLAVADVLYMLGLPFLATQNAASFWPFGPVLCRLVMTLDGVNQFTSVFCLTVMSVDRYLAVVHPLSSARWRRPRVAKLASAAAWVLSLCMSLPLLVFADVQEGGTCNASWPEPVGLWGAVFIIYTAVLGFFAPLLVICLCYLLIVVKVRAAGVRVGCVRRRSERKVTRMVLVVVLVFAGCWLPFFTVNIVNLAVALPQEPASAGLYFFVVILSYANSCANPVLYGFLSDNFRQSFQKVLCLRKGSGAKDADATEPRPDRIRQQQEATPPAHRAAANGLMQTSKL
Sequence of Somatostatin receptor type 3 (P32745 whole entry): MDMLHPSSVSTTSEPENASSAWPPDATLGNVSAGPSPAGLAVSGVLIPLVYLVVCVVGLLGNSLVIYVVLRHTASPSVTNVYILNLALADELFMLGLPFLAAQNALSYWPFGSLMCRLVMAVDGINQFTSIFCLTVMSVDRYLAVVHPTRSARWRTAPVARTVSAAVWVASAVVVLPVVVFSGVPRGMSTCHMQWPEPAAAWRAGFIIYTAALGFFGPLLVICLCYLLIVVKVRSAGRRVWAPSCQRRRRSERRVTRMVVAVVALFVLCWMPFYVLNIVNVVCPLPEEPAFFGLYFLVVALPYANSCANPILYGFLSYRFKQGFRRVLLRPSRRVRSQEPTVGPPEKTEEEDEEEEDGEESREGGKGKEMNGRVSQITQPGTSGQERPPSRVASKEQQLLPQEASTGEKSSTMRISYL

CC(C)S(=O)(=O)N1CCC(C(=O)NC(C(=O)N[C@@H](CCCCN)C(=O)OC(C)(C)C)[C@@H](C)c2c[nH]c3ccccc23)CC1 (stereo not given in full)
Ki [1]: 3750 nM | Ki [2]: > 10000 nM | Ki [3]: 120 nM | Ratio [4]: > 83

C[C@@H](c1c[nH]c2ccccc12)C(NC(=O)C1CCCN(C(=O)C(c2ccccc2)c2ccccc2)C1)C(=O)N[C@@H](CCCCN)C(=O)OC(C)(C)C (stereo not given in full)
Ki [5]: 5 nM

C[C@@H](c1c[nH]c2ccccc12)C(NC(=O)C1CCCN(C(=O)Cc2cc(F)cc(F)c2)C1)C(=O)N[C@@H](CCCCN)C(=O)OC(C)(C)C (stereo not given in full)
Ki [5]: 2.3 nM

C[C@@H](c1c[nH]c2ccccc12)C(NC(=O)C1CCCN(C(=O)NC2CCCCC2)C1)C(=O)N[C@@H](CCCCN)C(=O)OC(C)(C)C (stereo not given in full)
Ki [5]: 7.2 nM

C[C@@H](c1c[nH]c2ccccc12)C(NC(=O)C1CCCN(Cc2ccccc2)C1)C(=O)N[C@@H](CCCCN)C(=O)OC(C)(C)C (stereo not given in full)
Ki [5]: 4.6 nM

COc1ccc(S(=O)(=O)N2CCCC(C(=O)NC(C(=O)N[C@@H](CCCCN)C(=O)OC(C)(C)C)[C@@H](C)c3c[nH]c4ccccc34)C2)cc1OC (stereo not given in full)
Ki [5]: 23 nM

COc1cccc(CN2CCCC(C(=O)NC(C(=O)N[C@@H](CCCCN)C(=O)OC(C)(C)C)[C@@H](C)c3c[nH]c4ccccc34)C2)c1 (stereo not given in full)
Ki [5]: 10 nM

CC(C)S(=O)(=O)N1CCCC(C(=O)NC(C(=O)N[C@@H](CCCCN)C(=O)OC(C)(C)C)[C@@H](C)c2c[nH]c3ccccc23)C1 (stereo not given in full)
Ki [5]: 35 nM

C[C@@H](c1c[nH]c2ccccc12)C(NC(=O)C1CCCN(Cc2cccc(F)c2)C1)C(=O)N[C@@H](CCCCN)C(=O)OC(C)(C)C (stereo not given in full)
Ki [5]: 5 nM

C[C@@H](c1c[nH]c2ccccc12)C(NC(=O)C1CCCN(Cc2ccc(F)c(F)c2)C1)C(=O)N[C@@H](CCCCN)C(=O)OC(C)(C)C (stereo not given in full)
Ki [5]: 2.9 nM

C[C@@H](c1c[nH]c2ccccc12)C(NC(=O)C1CCCN(Cc2ccc3c(c2Cl)OCO3)C1)C(=O)N[C@@H](CCCCN)C(=O)OC(C)(C)C (stereo not given in full)
Ki [5]: 12 nM

C[C@@H](c1c[nH]c2ccccc12)C(NC(=O)C1CCCN(Cc2ccc3ccccc3c2)C1)C(=O)N[C@@H](CCCCN)C(=O)OC(C)(C)C (stereo not given in full)
Ki [5]: 17 nM

C[C@@H](c1c[nH]c2ccccc12)C(NC(=O)C1CCCN(C(=O)C(O)(c2ccccc2)c2ccccc2)C1)C(=O)N[C@@H](CCCCN)C(=O)OC(C)(C)C (stereo not given in full)
Ki [5]: 2.8 nM

CC(C)CC(=O)N1CCCC(C(=O)NC(C(=O)N[C@@H](CCCCN)C(=O)OC(C)(C)C)[C@@H](C)c2c[nH]c3ccccc23)C1 (stereo not given in full)
Ki [5]: 23 nM

C[C@@H](c1c[nH]c2ccccc12)C(NC(=O)C1CCCN(C(=O)c2ccc3c(c2)OCO3)C1)C(=O)N[C@@H](CCCCN)C(=O)OC(C)(C)C (stereo not given in full)
Ki [5]: 36 nM

C[C@@H](c1c[nH]c2ccccc12)C(NC(=O)C1CCCN(C(=O)c2ccccc2)C1)C(=O)N[C@@H](CCCCN)C(=O)OC(C)(C)C (stereo not given in full)
Ki [5]: 10 nM

C[C@@H](c1c[nH]c2ccccc12)C(NC(=O)C1CCCN(Cc2ccccc2-c2ccccc2)C1)C(=O)N[C@@H](CCCCN)C(=O)OC(C)(C)C (stereo not given in full)
Ki [5]: 21 nM

C[C@@H](c1c[nH]c2ccccc12)C(NC(=O)C1CCCN(C(=O)c2cccnc2)C1)C(=O)N[C@@H](CCCCN)C(=O)OC(C)(C)C (stereo not given in full)
Ki [5]: 85 nM

C[C@@H](c1c[nH]c2ccccc12)C(NC(=O)C1CCCN(S(=O)(=O)c2cccs2)C1)C(=O)N[C@@H](CCCCN)C(=O)OC(C)(C)C (stereo not given in full)
Ki [5]: 14 nM

COC(=O)[C@H](Cc1ccccc1)NC(=O)N1CCCC(C(=O)NC(C(=O)N[C@@H](CCCCN)C(=O)OC(C)(C)C)[C@@H](C)c2c[nH]c3ccccc23)C1 (stereo not given in full)
Ki [5]: 8.6 nM

C[C@@H](c1c[nH]c2ccccc12)C(NC(=O)C1CCCNC1)C(=O)N[C@@H](CCCCN)C(=O)OC(C)(C)C (stereo not given in full)
Ki [5]: 178 nM

C[C@@H](c1c[nH]c2ccccc12)C(NC(=O)C1CCCN(Cc2cccc(F)c2F)C1)C(=O)N[C@@H](CCCCN)C(=O)OC(C)(C)C (stereo not given in full)
Ki [5]: 5.7 nM

CC(C)C(=O)N1CCC(C(=O)NC(C(=O)N[C@@H](CCCCN)C(=O)OC(C)(C)C)[C@@H](C)c2c[nH]c3ccccc23)CC1 (stereo not given in full)
Ki [1]: 5250 nM | Ki [2]: 2860 nM | Ki [3]: 15 nM | Ratio [4]: 190

C[C@@H](c1c[nH]c2ccccc12)C(NC(=O)C1CCN(Cc2ccccc2)CC1)C(=O)N[C@@H](CCCCN)C(=O)OC(C)(C)C (stereo not given in full)
Ki [2]: 333 nM | Ki [3]: 2.5 nM | Ratio [4]: 133

C[C@@H](c1c[nH]c2ccccc12)C(NC(=O)C1CCCN(S(=O)(=O)c2ccc(F)cc2)C1)C(=O)N[C@@H](CCCCN)C(=O)OC(C)(C)C (stereo not given in full)
Ki [5]: 11 nM

CC(C)NC(=O)N1CCCC(C(=O)NC(C(=O)N[C@@H](CCCCN)C(=O)OC(C)(C)C)[C@@H](C)c2c[nH]c3ccccc23)C1 (stereo not given in full)
Ki [5]: 95 nM

C[C@@H](c1c[nH]c2ccccc12)C(NC(=O)C1CCN(C(=O)c2ccccc2)CC1)C(=O)N[C@@H](CCCCN)C(=O)OC(C)(C)C (stereo not given in full)
Ki [1]: 2660 nM | Ki [2]: 416 nM | Ki [3]: 0.5 nM | Ratio [4]: 832

COC(=O)c1cccc(CN2CCCC(C(=O)NC(C(=O)N[C@@H](CCCCN)C(=O)OC(C)(C)C)[C@@H](C)c3c[nH]c4ccccc34)C2)c1 (stereo not given in full)
Ki [5]: 11 nM

C[C@@H](c1c[nH]c2ccccc12)C(NC(=O)C1CCCN(C(c2ccccc2)c2ccccc2)C1)C(=O)N[C@@H](CCCCN)C(=O)OC(C)(C)C (stereo not given in full)
Ki [5]: 31 nM

COc1cccc(NC(=O)N2CCCC(C(=O)NC(C(=O)N[C@@H](CCCCN)C(=O)OC(C)(C)C)[C@@H](C)c3c[nH]c4ccccc34)C2)c1 (stereo not given in full)
Ki [5]: 9 nM

C[C@@H](c1c[nH]c2ccccc12)C(NC(=O)C1CCCN(C(=O)Nc2ccccc2)C1)C(=O)N[C@@H](CCCCN)C(=O)OC(C)(C)C (stereo not given in full)
Ki [5]: 11 nM

C[C@@H](c1c[nH]c2ccccc12)C(NC(=O)C1CCCN(C(=O)Cc2ccc3c(c2)OCO3)C1)C(=O)N[C@@H](CCCCN)C(=O)OC(C)(C)C (stereo not given in full)
Ki [5]: 10 nM

CC(=O)Nc1cccc(C(=O)N2CCCC(C(=O)NC(C(=O)N[C@@H](CCCCN)C(=O)OC(C)(C)C)[C@@H](C)c3c[nH]c4ccccc34)C2)c1 (stereo not given in full)
Ki [5]: 47 nM

C[C@@H](c1c[nH]c2ccccc12)C(NC(=O)C1CCCN(C(=O)c2ccc3[nH]cnc3c2)C1)C(=O)N[C@@H](CCCCN)C(=O)OC(C)(C)C (stereo not given in full)
Ki [5]: 85 nM
